From PMC8523698, “Preclinical characterization of an intravenous coronavirus 3CL protease inhibitor for the potential treatment of COVID19” (Nature Communications, 2021)
Values joined by “and” are separate entries in the source; they are usually repeats but may differ in a detail not shown here. Equal entries are not always repeated. Where two headings read alike, the source gives them in different places.

Columns and labels:
MDR1/P-gp = MDR1/P-gp (Homo sapiens, UniProt P08183); assay: Transporter inhibition using membrane vesicles; details: for % PGP Uptake Activity: uptake of N-methyl quinidine by MDR1, single replicates
CYP3A4/5 = assay: Time-dependent inhibition of CYP enzymes in human liver microsomes; details: for time-dependent inhibition (TDI) signal: pooled HLM
OAT3 = target: T1, OAT3 (Homo sapiens, UniProt Q8TCC7); assay: Transporter inhibition using transfected HEK293 cells
T1 sequence (Q8TCC7 1-542): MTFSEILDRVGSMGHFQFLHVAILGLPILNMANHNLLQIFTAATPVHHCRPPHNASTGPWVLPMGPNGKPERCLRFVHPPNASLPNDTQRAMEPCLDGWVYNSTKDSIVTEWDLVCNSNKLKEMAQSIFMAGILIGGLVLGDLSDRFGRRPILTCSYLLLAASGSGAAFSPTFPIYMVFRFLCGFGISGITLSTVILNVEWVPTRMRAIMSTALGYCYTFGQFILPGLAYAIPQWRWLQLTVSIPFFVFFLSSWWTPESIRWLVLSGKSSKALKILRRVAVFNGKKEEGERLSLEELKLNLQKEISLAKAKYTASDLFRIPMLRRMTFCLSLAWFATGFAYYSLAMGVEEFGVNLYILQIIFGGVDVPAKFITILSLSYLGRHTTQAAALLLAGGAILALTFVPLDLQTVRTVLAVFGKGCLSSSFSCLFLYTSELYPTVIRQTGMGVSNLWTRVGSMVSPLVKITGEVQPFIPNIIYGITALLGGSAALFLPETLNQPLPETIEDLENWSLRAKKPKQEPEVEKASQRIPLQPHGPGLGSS

[1] = Secondary/off-target pharmacology panel (Eurofins Cerep); details: assessed at 100 µM
[2] = Plasma protein binding by equilibrium dialysis; details: for fraction unbound at 6 h, 5 uM / fraction unbound at 6 h / fraction unbound at 6 h, 3.44 uM: rat, plasma
hERG channel = hERG channel (Homo sapiens, UniProt Q12809); assay: hERG potassium channel current assay; details: for hERG margin in reference to projected unbound human Cmax: 300 µM vs projected Cmax at projected human efficacious dose
MATE2K = target: T2, MATE2K (Homo sapiens, UniProt Q86VL8); assay: Transporter inhibition using transfected HEK293 cells; type: in vitro ADME; details: IC50, [14C]Metformin (20 µM)
T2 construct: expressed in transfected cells; host or cells: HEK293
Method: For the inhibition studies, HEK293 cells were washed three times with warm transport buffer (Hanks’ balanced salt solution with 20 mM 4-(2-Hydroxyethyl) piperazine-1-ethanesulfonic acid, pH 7.4) followed by incubation with test compounds containing probe substrates: 10 or 20 µM [^14C]-metformin (OCT1, OCT2, MATE1, MATE2K), 0.5 µM [^3H] para-aminohippuric acid (OAT1), 0.1 µM [^3H] estrone-3-sulfate (OAT3) or 0.5 µM rosuvastatin (OATP1B1/1B3). Uptake was terminated by washing cells at least three times with ice-cold transport buffer and then lysing with 0.2 mL of scintillation fluid or 0.225 mL of methanol containing internal standard. For radiolabeled compounds, radioactivity in each sample was quantified by measurement on MicroBeta (Perkin Elmer). For rosuvastatin, cell extracts were dried down under nitrogen and reconstituted in 50:50 (v:v) methanol:water prior to injection onto a LC-MS/MS system. The total cellular protein content was determined by using a BCA Protein Assay Kit (Pierce Biotechnology) following the manufacturer’s protocol. Uptake ratio was then derived as a ratio of accumulation in transfected cells to accumulation in wild-type cells. The half-maximal inhibitory concentration (IC50) for each transporter was calculated in GraphPad Prism.

BCRP = BCRP (Homo sapiens, UniProt Q9UNQ0); assay: Transporter inhibition using membrane vesicles; details: IC50, Rosuvastatin (0.2 µM)
HCoV-229E = assay: Viral CPE assay in MRC-5 cells (CellTiter Glo); type: cell-based
MRC-5 cells = assay: Cytotoxicity in MRC-5 cells; details: MRC-5, plus 0.5 uM efflux inhibitor; one value per run date (N=3)
[3] = IC50, N-methyl quinidine (0.2 µM)
[4] = inhibitor concentration 0.0732 uM
[5] = inhibitor concentration 0.2930 uM
[6] = inhibitor concentration 1.1719 uM
[7] = inhibitor concentration 4.6875 uM
[8] = inhibitor concentration 18.7500 uM
[9] = inhibitor concentration 300.0000 uM
[10] = Human coronavirus 229E, MRC5, read-out: EC50 GeoMean (95% CI), efflux inhibitor CP-100356: 0
[11] = Human coronavirus 229E, MRC5, read-out: EC50 GeoMean (95% CI), efflux inhibitor CP-100356: 0.5 μM

Sequence of BCRP (Q9UNQ0 whole entry): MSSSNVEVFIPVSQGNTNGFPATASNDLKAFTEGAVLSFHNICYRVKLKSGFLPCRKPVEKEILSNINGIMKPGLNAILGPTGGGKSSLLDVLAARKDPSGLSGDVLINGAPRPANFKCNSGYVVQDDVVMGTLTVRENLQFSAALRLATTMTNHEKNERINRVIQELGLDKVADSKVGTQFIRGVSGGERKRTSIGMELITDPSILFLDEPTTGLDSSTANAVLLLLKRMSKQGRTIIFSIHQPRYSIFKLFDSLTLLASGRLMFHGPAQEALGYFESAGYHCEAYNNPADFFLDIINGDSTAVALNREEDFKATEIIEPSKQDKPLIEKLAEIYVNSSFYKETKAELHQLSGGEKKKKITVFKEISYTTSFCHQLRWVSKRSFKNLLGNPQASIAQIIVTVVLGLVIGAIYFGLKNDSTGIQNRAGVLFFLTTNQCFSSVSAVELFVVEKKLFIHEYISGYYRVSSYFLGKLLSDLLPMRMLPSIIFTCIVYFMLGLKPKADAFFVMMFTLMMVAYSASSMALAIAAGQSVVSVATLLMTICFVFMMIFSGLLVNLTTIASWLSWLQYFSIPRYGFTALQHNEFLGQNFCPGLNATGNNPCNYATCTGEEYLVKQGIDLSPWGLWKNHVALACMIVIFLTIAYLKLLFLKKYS
Sequence of MDR1/P-gp (P08183 whole entry): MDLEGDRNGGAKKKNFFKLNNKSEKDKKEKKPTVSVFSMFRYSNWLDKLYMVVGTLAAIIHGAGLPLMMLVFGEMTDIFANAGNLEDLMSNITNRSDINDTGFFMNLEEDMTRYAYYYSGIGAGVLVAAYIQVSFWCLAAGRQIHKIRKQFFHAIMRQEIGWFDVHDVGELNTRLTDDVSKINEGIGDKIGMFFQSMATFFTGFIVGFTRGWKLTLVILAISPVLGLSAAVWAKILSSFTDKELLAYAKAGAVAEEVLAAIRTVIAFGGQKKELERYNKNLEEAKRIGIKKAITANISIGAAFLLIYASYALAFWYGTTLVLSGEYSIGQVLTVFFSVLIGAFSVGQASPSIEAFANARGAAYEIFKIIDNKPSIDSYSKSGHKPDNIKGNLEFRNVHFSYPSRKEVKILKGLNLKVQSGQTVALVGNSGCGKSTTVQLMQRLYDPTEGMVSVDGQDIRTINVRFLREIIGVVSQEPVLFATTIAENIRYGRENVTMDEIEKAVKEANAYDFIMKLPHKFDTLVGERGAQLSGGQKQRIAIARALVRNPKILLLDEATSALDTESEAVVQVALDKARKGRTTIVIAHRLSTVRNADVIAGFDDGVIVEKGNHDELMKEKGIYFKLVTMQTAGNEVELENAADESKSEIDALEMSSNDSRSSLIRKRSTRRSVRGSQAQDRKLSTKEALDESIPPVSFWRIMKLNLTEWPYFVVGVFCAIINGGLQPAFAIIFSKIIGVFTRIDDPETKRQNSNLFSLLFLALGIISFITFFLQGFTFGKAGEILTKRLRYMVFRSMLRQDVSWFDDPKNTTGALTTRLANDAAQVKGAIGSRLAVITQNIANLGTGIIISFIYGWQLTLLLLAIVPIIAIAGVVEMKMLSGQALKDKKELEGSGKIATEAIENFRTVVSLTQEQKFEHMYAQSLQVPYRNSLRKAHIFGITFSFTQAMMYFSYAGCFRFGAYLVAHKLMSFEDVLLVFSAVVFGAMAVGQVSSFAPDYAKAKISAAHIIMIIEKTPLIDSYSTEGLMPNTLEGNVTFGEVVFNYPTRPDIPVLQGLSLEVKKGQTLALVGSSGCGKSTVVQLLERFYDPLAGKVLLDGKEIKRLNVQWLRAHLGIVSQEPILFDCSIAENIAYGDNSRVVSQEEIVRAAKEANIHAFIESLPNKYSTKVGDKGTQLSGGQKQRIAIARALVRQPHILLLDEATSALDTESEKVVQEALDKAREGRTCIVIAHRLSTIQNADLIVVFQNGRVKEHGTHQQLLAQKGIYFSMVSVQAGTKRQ
Sequence of hERG channel (Q12809 whole entry): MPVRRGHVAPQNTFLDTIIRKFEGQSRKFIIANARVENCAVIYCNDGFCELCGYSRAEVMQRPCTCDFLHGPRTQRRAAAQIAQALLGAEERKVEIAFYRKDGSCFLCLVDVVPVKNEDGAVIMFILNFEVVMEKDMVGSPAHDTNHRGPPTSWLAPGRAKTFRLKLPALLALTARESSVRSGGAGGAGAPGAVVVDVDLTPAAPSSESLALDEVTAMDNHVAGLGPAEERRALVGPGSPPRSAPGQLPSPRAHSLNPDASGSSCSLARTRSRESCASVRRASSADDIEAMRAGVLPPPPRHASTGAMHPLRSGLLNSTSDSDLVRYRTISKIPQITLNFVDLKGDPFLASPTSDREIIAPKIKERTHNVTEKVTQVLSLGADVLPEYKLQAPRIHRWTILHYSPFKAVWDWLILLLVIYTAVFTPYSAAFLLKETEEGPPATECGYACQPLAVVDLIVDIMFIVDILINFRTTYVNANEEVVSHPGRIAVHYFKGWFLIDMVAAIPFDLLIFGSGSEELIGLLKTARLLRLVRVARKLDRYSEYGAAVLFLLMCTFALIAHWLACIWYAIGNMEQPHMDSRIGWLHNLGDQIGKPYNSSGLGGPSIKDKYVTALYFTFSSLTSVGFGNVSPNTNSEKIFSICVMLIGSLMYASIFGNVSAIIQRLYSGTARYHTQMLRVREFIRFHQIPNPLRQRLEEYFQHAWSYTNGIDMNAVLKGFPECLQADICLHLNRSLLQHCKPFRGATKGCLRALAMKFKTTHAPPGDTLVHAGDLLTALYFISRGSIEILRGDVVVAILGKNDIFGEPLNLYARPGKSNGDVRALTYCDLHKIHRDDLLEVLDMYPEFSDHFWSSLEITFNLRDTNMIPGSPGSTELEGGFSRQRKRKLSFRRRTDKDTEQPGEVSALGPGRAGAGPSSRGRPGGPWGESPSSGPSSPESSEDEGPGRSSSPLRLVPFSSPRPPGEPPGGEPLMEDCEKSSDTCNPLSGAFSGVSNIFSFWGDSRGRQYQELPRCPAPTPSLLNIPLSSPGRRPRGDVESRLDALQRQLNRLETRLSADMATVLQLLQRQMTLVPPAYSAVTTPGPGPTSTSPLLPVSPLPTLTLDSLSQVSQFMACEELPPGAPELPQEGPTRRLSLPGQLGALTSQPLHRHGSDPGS
T2 sequence (Q86VL8 1-566 isoform Q86VL8-3): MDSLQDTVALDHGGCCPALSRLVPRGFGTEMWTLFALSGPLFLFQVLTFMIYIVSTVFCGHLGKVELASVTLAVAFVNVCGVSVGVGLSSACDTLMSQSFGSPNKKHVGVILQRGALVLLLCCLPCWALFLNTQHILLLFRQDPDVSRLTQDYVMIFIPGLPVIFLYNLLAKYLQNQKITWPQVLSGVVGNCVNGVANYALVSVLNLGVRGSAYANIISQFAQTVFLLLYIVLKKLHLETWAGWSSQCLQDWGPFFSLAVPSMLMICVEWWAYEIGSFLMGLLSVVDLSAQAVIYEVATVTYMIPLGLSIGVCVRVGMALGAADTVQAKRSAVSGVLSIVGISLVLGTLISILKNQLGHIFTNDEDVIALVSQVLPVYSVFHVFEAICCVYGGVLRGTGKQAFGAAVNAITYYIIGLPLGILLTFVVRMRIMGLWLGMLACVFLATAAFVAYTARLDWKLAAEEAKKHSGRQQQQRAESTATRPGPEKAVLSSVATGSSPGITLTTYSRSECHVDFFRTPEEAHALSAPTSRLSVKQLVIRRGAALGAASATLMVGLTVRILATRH

SMILES: COc1cccc2[nH]c(C(=O)N[C@@H](CC(C)C)C(=O)N[C@@H](C[C@@H]3CCNC3=O)C(=O)CO)cc12 [PF-00835231]
- IC50 (MDR1/P-gp; [3]): 65.6 µM
- IC50 at […] (MDR1/P-gp; human, human MDR1 (P-gp) membrane vesicles, pH 7.4, probe N-methyl quinidine (0.2 µM), IC50, N-methyl quinidine (0.2 µM)): > 20 µM
- % PGP Uptake Activity (MDR1/P-gp; [4]): 93.3145% and 114.451% and 106.12%
- % PGP Uptake Activity (MDR1/P-gp; [5]): 78.5035% and 118.154% and 104.268%
- % PGP Uptake Activity (MDR1/P-gp; [6]): 118.617% and 114.451%
- % PGP Uptake Activity (MDR1/P-gp; [7]): 113.525% and 107.354% and 108.897%
- % PGP Uptake Activity (MDR1/P-gp; [8]): 94.703% and 96.0915% and 89.1489%
- % PGP Uptake Activity (MDR1/P-gp; [9]): 17.0995% and 14.0139% and 11.9619%
- KI ± SE (CYP3A4/5; Midazolam (20 µM)): 163 ± 31 µM
- KI ± SE (CYP3A4/5; Midazolam (20 µM), listed as PF00835231): 163 µM
- KI ± SE (CYP3A4/5; Testosterone ([…])): 168 ± 8 µM
- time-dependent inhibition (TDI) signal (CYP3A4/5): weak signal
- IC50 (OAT3): > 300 µM
- IC50 (OAT3; human, HEK293 cells transfected with OAT3, pH 7.4, probe [3H] estrone-3-sulfate (0.1 µM)): > 20 µM
- secondary (off-target) pharmacology [1]: minimal potential for secondary (off-target) pharmacology
- Individual fraction unbound ([2]; Rat Wistar han plasma, 5.0 uM, replicates Day 1-3): 0.368 and 0.323 and 0.339 and 0.35 and 0.268 and 0.363 and 0.364 and 0.263 and 0.326 and 0.358 and 0.285
- fraction unbound at 6 h, 5 uM ([2]; Wistar Han, pH 7.4, Fraction unbound, Geomean, Rat plasma, 5.0 uM, n 12): 0.327
- fraction unbound at 6 h, 5 uM ([2]; Wistar Han, pH 7.4, Individual fraction unbound, Rat Wistar han plasma, 5.0 uM, replicates Day 1-3): 0.343
- fraction unbound at 6 h ([2]; Wistar Hannover, pH 7.4, Plasma fu, Vdss input): 0.327
- fraction unbound at 6 h ([2]; Wistar Hannover, pH 7.4, Unbound fraction fu (%CV), rat plasma (PF-07304814 Sprague-Dawley, PF-00835231 Wistar Hannover)): 0.327
- fraction unbound at 6 h, 5 uM ([2]; Wistar Hannover, pH 7.4, fraction unbound Geomean, rat plasma, 5.0 uM, n=12): 0.327
- hERG margin in reference to projected unbound human Cmax (hERG channel): 600 fold
- CC50 (in vitro; African green monkey, CC50): > 100 µM
- CC50 (in vitro; African green monkey, CC50, n=1): > 50 µM
- CC50 (in vitro; monkey, CC50): > 50 µM
- CC50 (in vitro; monkey, CC50, n=1): > 50 µM
- CC50 (in vitro; monkey, CC50 GeoMean (95% CI)): > 100 µM
- IC50 (MATE2K): 180 µM
- IC50 (MATE2K; human, HEK293 cells stably transfected with MATE2K, pH 7.4, probe [14C]-metformin (20 µM)): > 20 µM
- IC50 (BCRP): 19.5 µM
- EC50 (HCoV-229E; Human coronavirus 229E, MRC5, MRC-5, minus efflux inhibitor, individual determinations by date): 0.0806 µM
- EC50 (HCoV-229E; [10]): 0.069 µM
- EC50 (HCoV-229E; [11]): 0.08 µM

SMILES: COc1cccc2[nH]c(C(=O)N[C@@H](CC(C)C)C(=O)N[C@@H](C[C@@H]3CCNC3=O)C(=O)COP(=O)(O)O)cc12 [PF-07304814]
- IC50 (MDR1/P-gp; [3]): > 300 µM
- % PGP Uptake Activity (MDR1/P-gp; [4]): 123.862% and 96.8629% and 149.319%
- % PGP Uptake Activity (MDR1/P-gp; [5]): 106.737% and 95.0116% and 107.663%
- % PGP Uptake Activity (MDR1/P-gp; [6]): 108.588% and 115.068% and 109.514%
- % PGP Uptake Activity (MDR1/P-gp; [7]): 120.159% and 118.308% and 119.234%
- % PGP Uptake Activity (MDR1/P-gp; [8]): 122.011% and 113.68% and 118.308%
- % PGP Uptake Activity (MDR1/P-gp; [9]): 73.875% and 64.7724% and 99.64%
- time-dependent inhibition (TDI) signal (CYP3A4/5): no evidence of TDI
- IC50 (OAT3; IC50, [3H]ES (0.1 µM)): > 300 µM
- secondary (off-target) pharmacology [1]: minimal potential for secondary (off-target) pharmacology
- fraction unbound at 6 h, 3.44 uM ([2]; Sprague-Dawley, pH 7.4, fraction unbound Geomean, rat plasma, 3.44 uM, n=12): 0.379
- fraction unbound at 6 h, 3.44 uM ([2]; both, Sprague Dawley, pH 7.4, Individual fraction unbound, rat plasma, Sprague Dawley, male and female, 3.44 uM, Day 1): 0.404
- fraction unbound at 6 h, 3.44 uM ([2]; both, Sprague Dawley, pH 7.4, Individual fraction unbound, rat plasma, Sprague Dawley, male and female, 3.44 uM, Day 2): 0.362
- fraction unbound at 6 h, 3.44 uM ([2]; both, Sprague Dawley, pH 7.4, Individual fraction unbound, rat plasma, Sprague Dawley, male and female, 3.44 uM, Day 3): 0.404
- Individual fraction unbound ([2]; rat plasma, Sprague Dawley, male and female, 3.44 uM, Day 1): 0.384 and 0.405 and 0.491
- Individual fraction unbound ([2]; rat plasma, Sprague Dawley, male and female, 3.44 uM, Day 2): 0.301 and 0.338 and 0.325
- Individual fraction unbound ([2]; rat plasma, Sprague Dawley, male and female, 3.44 uM, Day 3): 0.406 and 0.385 and 0.381
- hERG margin in reference to projected unbound human Cmax (hERG channel): 1,770 fold
- concentration up to which hERG current amplitude was not inhibited (hERG channel; human): 300 µM
- CC50 (MRC-5 cells): > 100 µM
- CC50 (in vitro; African green monkey, CC50): > 100 µM
- IC50 (MATE2K): > 300 µM
- IC50 (BCRP): 238 µM and > 130 µM
- EC50 (HCoV-229E; [10]): 0.074 µM
- EC50 (HCoV-229E; [11]): 0.058 µM
- EC50 (HCoV-229E; MRC-5, plus 0.5 uM efflux inhibitor, one value per run date (N=3), read-out: EC50): 0.0818 µM
